Measurements: PMC9430567, “A Small-Molecule Inhibitor of the Anthranilyl-CoA Synthetase PqsA for the Treatment of Multidrug-Resistant Pseudomonas aeruginosa” (Microbiology Spectrum, 2022)
In brackets after ≈: the same amount, converted by molar mass.

What was measured:
MDR P. aeruginosa C218 = tested on: T1, MDR P. aeruginosa C218; assay: microbe, parasite or virus in culture; parameters: species or system Pseudomonas aeruginosa C218; CLSI broth micro-dilution MIC, complete inhibition of visible growth; conditions: Pseudomonas aeruginosa
T1 construct: C218
Procedure: MIC determination using the standard micro-dilution method was performed according to the Clinical and Laboratory Standards Institute ([29]). […] Experiments were performed in triplicate.

PqsE = target: T2, PqsE (Pseudomonas aeruginosa, UniProt P20581); assay: biolayer interferometry (Octet K2); type: binding
T2 construct: His6-tagged PqsE (pET30a-His6-pqsE), expressed in E. coli BL21 Star (DE3)

LasR = target: T3, LasR (Pseudomonas aeruginosa, UniProt P25084); assay: biolayer interferometry (Octet K2); type: binding
T3 construct: His6-tagged LasR (pET30a-His6-LasR), expressed in E. coli BL21 Star (DE3)

PqsA G279A = target: T4, PqsA G279A (Pseudomonas aeruginosa, UniProt Q9I4X3, G279A); assay: biolayer interferometry (Octet K2); type: binding
T4 construct: His6-tagged PqsA G279A (pET30a-His6-pqsA^G279A), expressed in E. coli BL21 Star (DE3)
T4 sequence (Q9I4X3 1-517 G279A): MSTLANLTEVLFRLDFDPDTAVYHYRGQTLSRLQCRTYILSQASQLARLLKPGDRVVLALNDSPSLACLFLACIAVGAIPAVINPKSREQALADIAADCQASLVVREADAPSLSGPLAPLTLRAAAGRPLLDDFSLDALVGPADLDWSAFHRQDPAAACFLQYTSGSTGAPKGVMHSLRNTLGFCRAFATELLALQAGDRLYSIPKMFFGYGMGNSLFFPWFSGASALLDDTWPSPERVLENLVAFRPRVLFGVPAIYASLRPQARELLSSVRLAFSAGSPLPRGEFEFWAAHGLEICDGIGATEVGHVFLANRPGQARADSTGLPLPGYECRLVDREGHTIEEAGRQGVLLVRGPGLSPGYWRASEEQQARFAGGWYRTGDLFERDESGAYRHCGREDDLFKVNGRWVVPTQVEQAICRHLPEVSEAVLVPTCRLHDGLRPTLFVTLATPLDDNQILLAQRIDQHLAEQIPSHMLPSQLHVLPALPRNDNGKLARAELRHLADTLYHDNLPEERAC

[1] = target: T5, anthranilyl-CoA synthetase PqsA (Pseudomonas aeruginosa, UniProt Q9I4X3); assay: biolayer interferometry (Octet K2); type: binding
T5 construct: His6-tagged PqsA (pET30a-His6-pqsA), expressed in E. coli BL21 Star (DE3)

PqsA D299A = target: T6, PqsA D299A (Pseudomonas aeruginosa, UniProt Q9I4X3, D299A); assay: biolayer interferometry (Octet K2); type: binding
T6 construct: His6-tagged PqsA D299A (pET30a-His6-pqsA^D299A), expressed in E. coli BL21 Star (DE3)
T6 sequence (Q9I4X3 1-517 D299A): T4 sequence (Q9I4X3 1-517 G279A)

LasI = target: T7, LasI (Pseudomonas aeruginosa, UniProt P33883); assay: biochemical; parameters: biolayer interferometry (BLI) binding to purified His6-tagged protein
T7 construct: His6-tagged LasI (pET30a-His6-lasI)
Procedure: (§1) [compound left out]. Cell debris was removed by centrifugation. […] The purified protein was assessed by SDS-PAGE.

PqsD = target: T8, PqsD (Pseudomonas aeruginosa, UniProt P20582); assay: biochemical; parameters: biolayer interferometry (BLI) binding to purified His6-tagged protein
T8 construct: His6-tagged PqsD (pET30a-His6-pqsD)
Procedure: as §1

PqsR = target: T9, PqsR (Pseudomonas aeruginosa, UniProt Q9I4X0); assay: biochemical; parameters: biolayer interferometry (BLI) binding to purified His6-tagged protein
T9 construct: gene mvfR; His6-tagged PqsR (pET30a-His6-pqsR)
Procedure: as §1

RhlI = target: T10, RhlI (Pseudomonas aeruginosa, UniProt P54291); assay: biochemical; parameters: biolayer interferometry (BLI) binding to purified His6-tagged protein
T10 construct: His6-tagged RhlI (pET30a-His6-rhlI)
Procedure: as §1

RhlR = RhlR (Pseudomonas aeruginosa, UniProt P54292); assay: biochemical

SMILES	MIC (MDR P. aeruginosa C218)	also measured
NCC[C@H](O)C(=O)N[C@@H]1C[C@H](N)[C@@H](O[C@H]2O[C@H](CN)[C@@H](O)[C@H](O)[C@H]2O)[C@H](O)[C@H]1O[C@H]1O[C@H](CO)[C@@H](O)[C@H](N)[C@H]1O [Amikacin]	7.8 mg/L (≈ 13.3 µM)	
CC1(C)S[C@@H]2[C@H](NC(=O)[C@H](NC(=O)N3CCNC3=O)c3ccccc3)C(=O)N2[C@H]1C(=O)O [Azlocillin]	4000 mg/L (≈ 8670 µM)	
C[C@H]1[C@H](NC(=O)/C(=N\OC(C)(C)C(=O)O)c2csc(N)n2)C(=O)N1S(=O)(=O)O [Aztreonam]	4000 mg/L (≈ 9190 µM)	
CO/N=C(\C(=O)N[C@@H]1C(=O)N2C(C(=O)[O-])=C(C[N+]3(C)CCCC3)CS[C@H]12)c1csc(N)n1 [Cefepime]	4000 mg/L (≈ 8320 µM)	
CC(C)(O/N=C(\C(=O)N[C@@H]1C(=O)N2C(C(=O)[O-])=C(C[n+]3ccccc3)CS[C@H]12)c1csc(N)n1)C(=O)O [Ceftazidime]	500 mg/L (≈ 915 µM)	
C[C@@H](O)[C@H]1C(=O)N2C(C(=O)O)=C(S[C@@H]3CN[C@H](CNS(N)(=O)=O)C3)[C@H](C)[C@H]12 [Doripenem]	500 mg/L (≈ 1190 µM)	
COc1c(N2CCNC(C)C2)c(F)cc2c(=O)c(C(=O)O)cn(C3CC3)c12 (centres unmarked) [Gatifloxacin]	62.5 mg/L (≈ 166 µM)	
C[C@@H](O)[C@H]1C(=O)N2C(C(=O)O)=C(SCCNC=N)C[C@H]12 [Imipenem]	500 mg/L (≈ 1670 µM)	
NC[C@H]1O[C@H](O[C@H]2[C@H](O)[C@@H](O[C@H]3O[C@H](CO)[C@@H](O)[C@H](N)[C@H]3O)[C@H](N)C[C@@H]2N)[C@H](O)[C@@H](O)[C@@H]1O [Kanamycin]	310 mg/L (≈ 640 µM)	
C[C@H]1COc2c(N3CCN(C)CC3)c(F)cc3c(=O)c(C(=O)O)cn1c23 [Levofloxacin]	62.5 mg/L (≈ 173 µM)	
CCn1cc(C(=O)O)c(=O)c2cc(F)c(N3CCNC(C)C3)c(F)c21 (centres unmarked) [Lomefloxacin]	125 mg/L (≈ 356 µM)	
C[C@@H](O)[C@H]1C(=O)N2C(C(=O)O)=C(S[C@@H]3CN[C@H](C(=O)N(C)C)C3)[C@H](C)[C@H]12 [Meropenem]	500 mg/L (≈ 1300 µM)	
CCn1cc(C(=O)O)c(=O)c2cc(F)c(N3CCNCC3)cc21 [Norfloxacin]	4000 mg/L (≈ 12500 µM)	
CC1COc2c(N3CCN(C)CC3)c(F)cc3c(=O)c(C(=O)O)cn1c23 (centres unmarked) [Ofloxacin]	500 mg/L (≈ 1380 µM)	
CCN1CCN(C(=O)N[C@@H](C(=O)N[C@@H]2C(=O)N3[C@@H]2SC(C)(C)[C@@H]3C(=O)O)c2ccccc2)C(=O)C1=O [Piperacillin]	4000 mg/L (≈ 7730 µM)	
NC[C@H]1O[C@H](O[C@H]2[C@H](O)[C@@H](O[C@H]3O[C@H](CO)[C@@H](O)[C@H](N)[C@H]3O)[C@H](N)C[C@@H]2N)[C@H](N)C[C@@H]1O [Tobramycin]	3.9 mg/L (≈ 8.34 µM)	
c1ccc2c(c1)[nH]c1cnccc12 [norharmane]		Kd (PqsE): 500 µM; Kd (LasR): 2290 µM; Kd (PqsA G279A): 1100 µM; Kd [1]: 2.54 µM; Kd (PqsA D299A): 1650 µM; Kd (LasI): > 1000 µM; Kd (PqsD): > 1000 µM; Kd (PqsR): > 1000 µM; Kd (RhlI): > 1000 µM; Kd (RhlR): > 1000 µM
